Bounds are passed on as bounds.

The experiment deals with T1, Melatonin receptor type 1B (Gallus gallus, UniProt P51050).
T1 sequence (P51050 whole entry): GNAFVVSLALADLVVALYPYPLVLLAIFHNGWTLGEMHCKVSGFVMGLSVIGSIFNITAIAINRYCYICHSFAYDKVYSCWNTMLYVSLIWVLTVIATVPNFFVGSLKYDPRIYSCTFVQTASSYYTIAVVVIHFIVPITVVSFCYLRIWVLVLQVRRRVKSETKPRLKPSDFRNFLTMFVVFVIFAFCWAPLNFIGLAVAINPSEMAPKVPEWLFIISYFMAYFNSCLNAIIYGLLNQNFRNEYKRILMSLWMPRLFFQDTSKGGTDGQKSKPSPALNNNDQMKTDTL
Kind of experiment: Binding affinity measured against Chicken brain melatonin receptor by using 2-[125I]iodomelatonin as radioligand.

For `COc1ccc2c(c1)C(CNC(C)=O)CC2` (configuration not stated), the Ki (commonly a measure of affinity in units of concentration, obtained from inhibition or displacement) came out at 77 nM.

As to `CCCC(=O)NCC1CCCc2ccc(OC)cc21` (configuration not stated), the affinity, expressed as Ki, was 0.45 nM.

With `CCCC(=O)NCC1CCCCc2ccc(OC)cc21` (configuration not stated), the Ki is 1 nM.

As to `CCC(=O)NCC1CCCCc2ccc(OC)cc21` (configuration not stated), the Ki amounted to 29 nM.

`CCCC(=O)NCC1Cc2ccc(OC)cc21` (configuration not stated) had a Ki of 49 nM.

`COc1ccc2c(c1)C(CNC(C)=O)CCC2` (configuration not stated) displayed a Ki of 4 nM.

`CCCC(=O)NCC1CCc2ccc(OC)cc21` (configuration not stated) had a Ki of 7.6 nM.

Turning to `CCC(=O)NCC1Cc2ccc(OC)cc21` (configuration not stated), the Ki was determined as 40 nM.

As to `COc1ccc2c(c1)C(CNC(C)=O)CCCC2` (configuration not stated), the affinity corresponds to a Ki of 34 nM.

`COc1ccc2c(c1)C(CNC(C)=O)C2` (configuration not stated) gave a Ki of 224 nM.

`COc1cccc2c1CC(NC(C)=O)CC2` (configuration not stated) returned a Ki of 161 nM.

Molecule `CCC(=O)NCC1CCc2ccc(OC)cc21` (racemic) had a Ki of 16 nM.

Take `CCC(=O)NCC1CCCc2ccc(OC)cc21` (racemic): the affinity corresponds to a Ki of 0.53 nM.

For the molecule `CCC(=O)NCC1CCc2ccc(OC)cc21` (single isomer, unassigned; (+)), the Ki was 3 nM.

As for `CCC(=O)NCC1CCCc2ccc(OC)cc21` (single isomer, unassigned; (+)), the Ki turned out to be 0.45 nM.

The molecule `CCC(=O)NCC1CCc2ccc(OC)cc21` (single isomer, unassigned; (-)) showed a Ki of 456 nM.

`CCC(=O)NCC1CCCc2ccc(OC)cc21` (single isomer, unassigned; (-)) had a Ki of more than 1000 nM.

The values above are taken from ChEMBL document CHEMBL1131354 (Bioorg Med Chem Lett, 1998).
